From US5736380A, “Maltose-trehalose converting enzyme, and preparation and uses thereof” (Kabushiki Kaisha Hayashibara Seibutsu Kagaku Kenkyujo, priority 1993, dated 1998)
Entries after “also recorded” stand apart in the source; their conditions may differ. Structures can show the parent of a compound that is named as a salt.

Experiments:
[1] = tested on: maltose-trehalose converting enzyme; assay: Inhibition of activity of the present enzyme; type: biochemical, microorganisms; conditions: one mM Cu^++, Hg^++ and Tris-HCl buffer
Description: (§1) The activity of the present maltose-trehalose converting enzyme is assayed as follows: One ml of an enzyme solution is added to one ml of 20 w/v % maltose as a substrate in 10 mM phosphate buffer (pH 7.0), and the mixture solution is incubated at 25° C., 35° C. or 60° C. for 60 min, followed by the heating the solution at 100° C. for 10 min to suspend the enzymatic reaction. To the resultant reaction mixture is precisely diluted by 11-fold with 50 mM phosphate buffer (pH 7.5), and 0.4 ml of the diluted solution is admixed with 0.1 ml of a trehalase solution having one unit/ml of trehalase. […] As a control, by using trehalase and an enzyme solution, which were preheated at 100° C. for 10 min to inactivate the enzyme, the activity of the enzyme solution is assayed similarly as above. […] As regards to the reaction temperature, it is set to 25° C. for the enzyme of a microorganism of the genus Pimelobacter; 35° C. for that of the genus Pseudomonas; and 60° C. for that of the genus Thermus.

[2] = biological target: maltose-trehalose converting enzyme derived from Pseudomonas putida H262 (Pseudomonas putida, UniProt Q88FN0); assay: Inhibition of enzyme activity; type: biochemical; conditions: one mM Cu^++ or Hg^++, 50 mM Tris-HCl buffer
Chain of maltose-trehalose converting enzyme derived from Pseudomonas putida H262 (Q88FN0 entry or part of it): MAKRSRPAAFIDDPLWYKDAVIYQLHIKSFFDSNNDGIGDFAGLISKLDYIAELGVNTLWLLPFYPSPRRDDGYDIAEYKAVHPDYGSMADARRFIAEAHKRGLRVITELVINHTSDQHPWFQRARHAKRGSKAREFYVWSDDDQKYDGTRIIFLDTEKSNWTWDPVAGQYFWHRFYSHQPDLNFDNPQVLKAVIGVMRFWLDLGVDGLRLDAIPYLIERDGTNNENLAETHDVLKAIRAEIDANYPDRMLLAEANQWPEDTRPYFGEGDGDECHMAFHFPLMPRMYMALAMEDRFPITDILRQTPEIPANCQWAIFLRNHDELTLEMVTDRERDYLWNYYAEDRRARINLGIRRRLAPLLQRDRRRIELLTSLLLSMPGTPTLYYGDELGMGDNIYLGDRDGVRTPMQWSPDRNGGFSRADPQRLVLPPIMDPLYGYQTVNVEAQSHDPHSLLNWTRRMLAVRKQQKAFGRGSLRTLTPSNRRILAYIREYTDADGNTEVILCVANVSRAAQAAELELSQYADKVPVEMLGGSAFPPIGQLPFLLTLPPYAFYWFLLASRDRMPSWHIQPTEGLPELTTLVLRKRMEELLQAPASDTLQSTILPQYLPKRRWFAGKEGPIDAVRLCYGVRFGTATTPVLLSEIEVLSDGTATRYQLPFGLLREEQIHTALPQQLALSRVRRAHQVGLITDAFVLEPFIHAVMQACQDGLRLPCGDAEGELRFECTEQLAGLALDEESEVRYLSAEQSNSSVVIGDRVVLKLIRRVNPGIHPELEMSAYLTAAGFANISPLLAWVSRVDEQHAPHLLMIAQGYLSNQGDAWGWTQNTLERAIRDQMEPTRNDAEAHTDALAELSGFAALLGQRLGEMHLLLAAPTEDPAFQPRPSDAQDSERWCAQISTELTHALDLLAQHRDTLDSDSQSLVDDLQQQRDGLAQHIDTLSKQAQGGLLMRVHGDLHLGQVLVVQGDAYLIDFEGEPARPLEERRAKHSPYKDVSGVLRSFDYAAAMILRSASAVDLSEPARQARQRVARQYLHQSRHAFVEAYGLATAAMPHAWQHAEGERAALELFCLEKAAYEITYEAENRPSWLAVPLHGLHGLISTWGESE
Description: as §1
Effects of temperature and pH on the activity of the present enzyme were studied in accordance with the method as used for assaying the enzyme activity. The results were respectively shown in FIG. 5 (effect of temperature) and FIG. 6 (effect of pH). The optimum temperature of the enzyme was about […] when incubated at pH 7.0 for 60 min and the optimum pH was about 7.3-8.3 when incubated at 35° C. for 60 min. The thermal stability of the enzyme was determined by incubating it in containers with 50 mM phosphate buffers (pH 7.0) at different temperatures for 60 min, cooling the resultant buffers in the containers with cold water, and assaying the residual enzyme activity in each buffer. The pH stability of the enzyme was determined by incubating it in 50 mM phosphate buffers having different pHs at 35° C. for 60 min, adjusting the resultant buffers to pH 7.0, and assaying the residual enzyme activity in each buffer. The enzyme was stable up to a temperature of about 40° C. and stable at a pH of about 6.0-9.5. […]

[3] = biological target: T1, maltose-trehalose converting enzyme derived from Thermus aquaticus (ATCC 33923) (Thermus thermophilus, UniProt O06458); assay: Inhibition of enzyme activity; type: biochemical; conditions: one mM Cu^++ or Hg^++, 50 mM Tris-HCl buffer
T1 construct: The culture obtained in Experiment 15 was centrifuged to obtain an about 0.28 kg of wet cells; endogenous in cells; host or cells: Thermus aquaticus (ATCC 33923), enzyme purified from the disrupted wild-type cells
T1 sequence (O06458 1-963): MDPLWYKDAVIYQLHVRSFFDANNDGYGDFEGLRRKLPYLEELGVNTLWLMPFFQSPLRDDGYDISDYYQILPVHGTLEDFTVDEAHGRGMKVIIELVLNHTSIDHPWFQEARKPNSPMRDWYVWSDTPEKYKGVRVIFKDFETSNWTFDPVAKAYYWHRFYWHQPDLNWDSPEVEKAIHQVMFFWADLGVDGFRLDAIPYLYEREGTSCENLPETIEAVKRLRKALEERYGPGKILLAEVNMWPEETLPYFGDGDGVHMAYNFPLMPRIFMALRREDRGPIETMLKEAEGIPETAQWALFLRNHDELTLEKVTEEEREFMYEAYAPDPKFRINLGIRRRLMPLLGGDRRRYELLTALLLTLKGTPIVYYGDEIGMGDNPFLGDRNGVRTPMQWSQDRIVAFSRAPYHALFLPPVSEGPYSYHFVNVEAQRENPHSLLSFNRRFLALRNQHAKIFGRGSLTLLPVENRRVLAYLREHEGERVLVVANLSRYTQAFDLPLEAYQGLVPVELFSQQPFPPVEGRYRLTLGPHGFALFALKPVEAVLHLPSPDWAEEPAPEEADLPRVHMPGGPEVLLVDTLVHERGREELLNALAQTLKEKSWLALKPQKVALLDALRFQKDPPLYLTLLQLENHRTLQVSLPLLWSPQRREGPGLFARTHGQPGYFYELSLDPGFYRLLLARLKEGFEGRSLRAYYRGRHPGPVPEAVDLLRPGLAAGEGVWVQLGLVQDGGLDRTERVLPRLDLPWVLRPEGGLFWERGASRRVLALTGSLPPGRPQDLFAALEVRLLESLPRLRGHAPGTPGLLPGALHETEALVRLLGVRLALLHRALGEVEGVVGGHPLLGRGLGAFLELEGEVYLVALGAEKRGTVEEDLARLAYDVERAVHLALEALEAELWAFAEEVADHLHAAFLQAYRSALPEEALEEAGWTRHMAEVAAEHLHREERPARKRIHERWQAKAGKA
Description: The activity of the present maltose-trehalose converting enzyme is assayed as follows: One ml of an enzyme solution is added to one ml of 20 w/v % maltose as a substrate in 10 mM phosphate buffer (pH 7.0), and the mixture solution is incubated at 25° C., 35° C. or 60° C. for 60 min, followed by the heating the solution at 100° C. for 10 min to suspend the enzymatic reaction. To the resultant reaction mixture is precisely diluted by 11-fold with 50 mM phosphate buffer (pH 7.5), and 0.4 ml of the diluted solution is admixed with 0.1 ml of a trehalase solution having one unit/ml of trehalase. The resultant solution is incubated at 45° C. for 120 min, followed by determining the amount of glucose by the glucose-oxidase method. As a control, by using trehalase and an enzyme solution, which were preheated at 100° C. for 10 min to inactivate the enzyme, the activity of the enzyme solution is assayed similarly as above. With the above assay, the content of trehalose, formed by the present maltose-trehalose converting enzyme, is determined based on the amount of glucose formed, and one unit activity of the enzyme is defined as the amount of enzyme which forms one μmole of trehalose per minute. As regards to the reaction temperature, it is set to 25° C. for the enzyme of a microorganism of the genus Pimelobacter; 35° C. for that of the genus Pseudomonas; and 60° C. for that of the genus Thermus.
Effects of temperature and pH on the activity of the present enzyme were studied in accordance with the method as used for assaying the enzyme activity. […] The thermal stability of the enzyme was determined by incubating it in 50 mM phosphate buffers (pH 7.0) in test tubes at different temperatures for 60 min, cooling the test tubes with cold water, and assaying the residual enzyme activity in each buffer. The pH stability of the enzyme was determined by incubating it in 50 mM phosphate buffers having different pHs at 60° C. for 60 min, adjusting the resultant buffers to pH 7.0, and assaying the residual enzyme activity in each buffer.

Row | SMILES | Inhibition of activity [1] | Inhibition of activity [2] | Inhibition of activity [3]
1 | [Cu+2] [Cu^++] | inhibited | inhibited; also recorded: inhibitory | inhibited; also recorded: inhibitory
2 | [Hg+2] [Hg^++] | inhibited | inhibited; also recorded: inhibitory | inhibited; also recorded: inhibitory
3 | NC(CO)(CO)CO [Tris-HCl buffer] | inhibited | inhibited; also recorded: inhibitory | inhibited; also recorded: inhibitory
